In US12344584B2, “KCNQ potentiators” (Eli Lilly and Company, priority 2019, dated 2025):
Read-outs that look alike come from different tables or passages of the source.

Experiments:
[1] = target: T1, hKv7.2 and hKv7.3 (Kv7.2/7.3) (Homo sapiens, UniProt O43525+O43526); test: Modulation of Kv7.2/7.3 conductance, automated electrophysiology (IonWorks Barracuda, population patch clamp) in HEK293 cells; assay type: cell-based; design: Voltage Shift ([…]V0.5), Mean: unit not given here; settings: for Maximal Shift (efficacy) / Slope / EC50: 4-parameter logistic fit of voltage shift data; for EC50: read-out: EC50 (potency of V0.5 shift)
T1 construct: host or cells: HEK293
Method: Modulation of Kv7.2/7.3 Conductance by Kv7 Potentiators in a Mammalian Expression System
The potency and efficacy of Kv7 potentiators is assessed by automated electrophysiology on the IonWorks Barracuda (Molecular Devices) platform using the population patch clamp mode of the instrument.
Cell Culture: HEK293 cells stably expressing hKv7.2 (under tetracycline induction) and hKv7.3 (Catalog #CT6147, Charles River) are used for these studies. Cells are maintained in a Dulbecco's modified Eagle's medium/nutrient mixture Ham's F-12 (Sigma-Aldrich) supplemented with 5% tetracycline-screened fetal bovine serum (Sigma-Aldrich), 15 mM HEPES, 500 μg/mL G418, 100 U/mL penicillin, 100 μg/mL streptomycin, […] L-glutamine, 100 μg/mL zeocin, and 5 μg/mL blasticidin. Expression of hKv7.2 is induced by addition of 1 μg/mL doxycycline 24 h prior to recordings.
Cells are cultured in Corning T-150 flasks to a confluence of 85%-95%. At the start of an experiment, cells are washed once with D-PBS without calcium and magnesium and then dissociated by incubating in 3 ml of 0.25% trypsin for 8 min at 37° C. Cells ware resuspended in media, triturated gently, and centrifuged for 4 min at 1,000 rpm. Cells are resuspended in external solution to a final concentration of 2.5-3.5M cells/mL.
Solutions: External solution w is composed of (in mM): 140 NaCl, 5 KCl, 2 CaCl2, 1 MgCl2, 10 HEPES, 10 Glucose, pH 7.4. Internal solution is composed of (in mM): 90 K-gluconate, 40 KCl, 3.2 EGTA, 3.2 MgCl2, 5 HEPES, pH 7.25. The membrane perforating agent amphotericin B is prepared daily as a 27 mg/mL stock solution in DMSO and then added to the internal solution to a final concentration of 0.1 mg/mL. Test article dilutions are prepared in 384-well plates from 10 mM DMSO stock solutions and diluted using acoustic dispensing (Labcyte ECHO®), such that final DMSO concentrations are 0.1%.
Electrophysiological Recordings: Resuspended cells are placed on the IONWORKS® BARRACUDA™ (IWB) instrument, external solution is added to a 384-well patch plate, and a hole test is performed to determine blocked wells and offset voltages. Cells are then added to the patch plate (9 μL per well) by the instrument. Two seal tests are performed prior to introducing the perforating agent amphotericin in the internal solution and allowing approximately 8 min to obtain electrical access, which is verified by a third seal test. The command voltage protocol consists of a family of 1 sec voltages steps from −80 mV to +40 mV from a holding potential of −80 mV and is applied prior to (baseline) and 6 min after test article addition.
Data Analysis: Data are acquired and leak subtracted using IWB software. Current amplitudes during the last 10 msec of each voltage step are averaged and exported. Further analysis is performed using Microsoft Excel and GraphPad Prism. Current amplitude is converted to conductance (G) by the following formula: G=I/(V−Ek) where I=current, V=step potential, Ek=potassium reversal potential (−84 mV). Conductance in the presence of test article is normalized to the baseline conductance at +40 mV for the same well. Conductance-voltage (G−V) curves are fitted with the Boltzmann equation y=Bottom+(Top−Bottom)/(1+EXP((Vm−V0.5/k)).
Fitting a 4-parameter logistic equation to the data may be used to determine the potency (EC50) and efficacy (maximal shift) for each test compound.

[2] = system: motor neurons derived from ALS patient iPSC line with pathogenic mutation in TARDBP; test: Optopatch excitability assay in motor neurons derived from ALS patient iPSC line (TARDBP mutation); assay type: cell-based, human; settings: Homo sapiens, iPSC, TARDBP line, blue LED 5.1 mW/cm^2, mean, read-out: EC50, inhibition of excitability (action potential frequency)
Description: (§1) Optopatch Excitability Assay for Example 1 in Motor Neurons Derived From ALS Patient iPSC Lines
(§2) Altered excitability of cortical neurons and lower motor neuron is an important factor in the pathophysiology of ALS (See, for example, K. Kanai, et. al., J Neurol Neurosurg Psychiatry, 83, 734-738 (2012); P. Menon, et. al., Eur Neurol., 24, 816-824 (2017)). All-optical electrophysiology (“Optopatch”) was used to evaluate excitability in cultured motor neurons derived from iPSC lines from two ALS patients with different pathogenic mutations.
(§3) Cell Culture: The two iPSC lines are derived from one patient with a pathogenic mutation in TARDBP and one patient with a pathogenic repeat expansion mutation in C9orf72, respectively. Motor neurons are generated from these lines by a 2D differentiation method adapted from the dual SMAD inhibition neuronal patterning protocol (See S. M. Chambers, et. al., Nat Biotechnol., 27, 275-280 (2009)) by inclusion of motor neuron morphogens. Differentiation is verified by visual inspection, karyotyping and staining for beta-III-tubulin and the nuclear motor neuron marker ISL1. Neurons are cultured on a monolayer of mouse glia in mTeSR (Stem Cell Technologies), supplemented with 10 ng/mL BDNF. Forty-eight hours prior to imaging, 100 nM trans-retinal was added to the medium.
(§4) Transduction with Optopatch vectors: At 15 days in vitro, cultured motor neurons are transduced with a lentiviral vector to drive the co-expression of the actuator CheRiff-mOrange2 and the voltage indicator QuasAr3-Citrine (for details see D. R. Hochbaum, et. al., Nat. Methods, 11, 825-833 (2014)). Forty-eight hours prior to imaging, 100 nM trans-retinal was added to the medium.
Solutions: Recordings are performed in Brainphys™ imaging buffer with 3 mM potassium. The gap junction blocker 2-aminoethoxydiphenyl borate (50 μM) is added to eliminate electrical coupling between cells, and NBQX (10 μM), gabazine (20 μM), and AP5 (25 μM) were used to block synaptic transmission.
Optopatch Recordings: Five days after transduction, Optopatch imaging is performed on a custom, ultra-widefield fluorescence microscope at RT. Motor neurons are illuminated with red laser excitation (200 W/cm^2; 635 nm) to monitor changes in QuasAr fluorescence and blue LED excitation (0-127 mW/cm^2, 470 nm) to depolarize the cell membrane with CheRiff. A custom blue light stimulus protocol is used consisting of: i) 2 sec of red illumination only to monitor spontaneous activity, ii) 5×500 msec steps of increasing blue light intensity and iii) 2×2 sec linearly increasing blue light ramps, each with a different maximum blue intensity. Optopatch data are recorded using a Hamamatsu ORCA-Flash 4.0 sCMOS camera with a 1 kHz frame rate. The field of view size is 4 mm×0.5 mm. Custom control software written in MATLAB is used to control illumination protocols and record all movies. To examine acute effects of Kv7.2/7.3 potentiators, neurons are incubated with test compound for 15 min prior to imaging.
(§5) Data Analysis: Image segmentation analysis is performed using temporal Principle Component Analysis and spatial-temporal Independent Component Analysis to isolate individual neurons. A spike-finding algorithm is used to find action potentials, and data are analyzed for compound effects on mean firing rate, adaptation, rheobase and action potential waveform shape by comparing to vehicle controls (for detail, see C. A. Werley, et. al., Curr. Protoc. Pharmacol., 78, 11.20.1-11.20.24. (2017)).
Subjected to the protocol described above, the primary effect of the Example 1 is on the action potential firing rate in response to low intensity blue light illumination.
Fitting a 4-parameter logistic equation to the data may be used to determine the potency (EC50) of the effect of Example 1 on action potential frequency. Results are shown in Table 1 for two separate differentiation efforts each for the lines derived from the patients carrying the TARDBP and C9orf72 mutations.

[3] = system: motor neurons derived from ALS patient iPSC line with pathogenic repeat expansion mutation in C9orf72; test: Optopatch excitability assay in motor neurons derived from ALS patient iPSC line (C9orf72 repeat expansion); assay type: cell-based; settings: Homo sapiens, read-out: EC50, inhibition of excitability (action potential frequency)
Description: as §1, §2, §3, §4
Solutions: Recordings are performed in Brainphys™ imaging buffer with 3 mM potassium. […]
Optopatch Recordings: Five days after transduction, Optopatch imaging is performed on a custom, ultra-widefield fluorescence microscope at RT. Motor neurons are illuminated with red laser excitation (200 W/cm^2; 635 nm) to monitor changes in QuasAr fluorescence and blue LED excitation (0-127 mW/cm^2, 470 nm) to depolarize the cell membrane with CheRiff. […] Optopatch data are recorded using a Hamamatsu ORCA-Flash 4.0 sCMOS camera with a 1 kHz frame rate. […]
as §5, with “(2017)). […]” for “(2017)).”

[4] = system: peripheral axons; test: Threshold tracking of peripheral nerve excitability in anesthetized rats; assay type: in vivo; settings: rat, dosed 45 min after Example 1 at 30 mg/kg
Method: Threshold Tracking to Measure the Effects of Example 1 at 3.10 and 30 mg/kg IP on Peripheral Nerve Excitability
Threshold tracking is a non-invasive technique that allows measurement of the excitability properties of peripheral axons by providing information about their membrane potential and ion channel function.
16 male Wistar rats from Charles River, weighing between 307-446 g ware used. Animals are group housed with standard housing conditions (4 per cage, 07:00 h to 19:00 h light phase, constant temperature (21° C.) and humidity, and free access to food and water, as well as environmental enrichment).
Rats are anesthetized with isoflurane (2-2.5%, O2 at 0.5 L/min) and then placed on their back on a heating pad to keep the tail temperature above 32° C. The placement of the ring electrodes are marked out and the marked sections of the tail are scraped with a blade to remove hair and the top layer of skin. The sites are cleaned with water and dried, allowing fora good conduction between the skin and the sticky electrodes.
A sticky ring stimulating electrode (+ve anode) is wrapped around the foot. A second sticky ring stimulating electrode (−ve cathode) is wrapped 1.5 cm from the base of the tail. A needle recording electrode is placed just off center on the top of the tail, 6 cm distal to the stimulating cathode at the base of the tail. A needle reference electrode is placed just off center on the top of the tail, 2 cm distal to the recording electrode. A sticky ground electrode is wrapped around the tail 2 cm proximal from the recording electrode.
• Start the Multitrack program (description below) and Spike. • Record 15 min of stable baseline • After the 15 min, dose with Example 1 or HEC • Take blood spot for PK at the following: • 10 min post dose • 20 min post dose • 30 min post dose • 40 min post dose • 45 min after IP (intraperitoneal) dosing with Example 1, dose XE-991 (XE-991 is a commercially available compound that blocks KCNQ potentiator effects in a formalin assay in vivo—see Y. Zheng, et al., “Activation of peripheral KCNQ channels relieves gout pain,” Pain, 156 (2015) 1025-1035; and R. Zaczek, et al., “Two New Potent Neurotransmitter Release Enhancers, 10,10-Bis(4-Pyridinylmethyl)-9(10H)-Anthracenone and 10,10-Bis(2-Fluoro-4-Pyridinylmethyl)-9(10H)-Anthracenone: Comparison to Linopirdine” The Journal of Pharmacology and Experimental Therapeutics, 285:724-730, 1998. • (XE-991 is only dosed after Example 1 at 30 mg/kg) • Take blood spot for PK at the following: • 10 min post dose (55 min post Example 1 administration) • 20 min post dose (65 min post Example 1 administration) • 30 min post dose (75 min post Example 1 administration) • 40 min post dose (85 min post Example 1 administration)
In threshold tracking assay to measure the excitability properties of peripheral axons studies in rat, compound is administered by IP at 3, 10 or 30 mg/kg using 1% hydroxyethylcellulose: 0.25% polysorbate 80:0.05% antifoam:purified water (HEC) formulation. Dry blood spots (DBS) are collected around 10, 20, 30 and terminal 40 min post-dose. DBS samples are dried at RT for around 2 h. Brain samples are obtained at terminal time point and frozen until analysis. DBS samples are shipped and stored at RT.

[5] = 10 μM, difference from control in voltage at half-maximal conductance

Row | Voltage Shift ([…]V0.5), Mean ([1]; 0.0005 μM) | Voltage Shift ([…]V0.5), Mean ([1]; 0.0015 μM) | Voltage Shift ([…]V0.5), Mean ([1]; 0.005 μM) | Voltage Shift ([…]V0.5), Mean ([1]; 0.01 μM) | Voltage Shift ([…]V0.5), Mean ([1]; 0.04 μM) | Voltage Shift ([…]V0.5), Mean ([1]; 0.12 μM) | Voltage Shift ([…]V0.5), Mean ([1]; 0.37 μM) | Voltage Shift ([…]V0.5), Mean ([1]; 1.11 μM) | Voltage Shift ([…]V0.5), Mean ([1]; 3.33 μM) | Voltage Shift ([…]V0.5), Mean [1, 5] | Maximal Shift (efficacy) [1] | Slope [1] | EC50 [1] | EC50 ([2]; Diff 1) | EC50 ([2]; Diff 2) | EC50 ([3]; Diff 1, blue LED 5.1 mW/cm^2, mean) | EC50 ([3]; Diff 2, blue LED 5.1 mW/cm^2, mean) | Compound | reversal of the Example 1 induced increase in absolute threshold [4]
1 | 6.1 | 4.1 | 5.0 | 4.1 | 7.4 | 2.9 | −1.9 | −10.6 | −23.0 | −25.8 | −28 | 1.3 | 1100 nM | – | – | – | – | O=C(NCc1ccnc(OCC(F)(F)F)c1)NCC(O)C1(C(F)(F)F)CC1 (single isomer, unassigned) [Example 2, (+)-1-[2-hydroxy-2-[1-(trifluoromethyl)cyclopropyl]ethyl]-3-[[2-(2,2,2-trifluoroethoxy)-4-pyridyl]methyl]urea and (−)1-[2-hydroxy-2-[1-(trifluoromethyl)cyclopropyl]ethyl]-3-[[2-(2,2,2-trifluoroethoxy)-4-pyridyl]methyl]urea] | –
2 | 3.9 | 0.1 | 1.9 | −1.8 | −4.4 | −11.0 | −19.6 | −21.9 | −23.9 | −21.9 | −23 | 1.1 | 100 nM | – | – | – | – | O=C(NCCC1(C(F)(F)F)CC1)NCc1ccnc(OCC(F)(F)F)c1 [Example 3, 1-[[2-(2,2,2-trifluoroethoxy)-4-pyridyl]methyl]-3-[2-[1-(trifluoromethyl)cyclopropyl]ethyl]urea] | –
3 | – | – | – | – | – | – | – | – | – | – | – | – | – | 1150 nM | 840 nM | 1660 nM | 1350 nM | CCOC(=O)Nc1ccc(NCc2ccc(F)cc2)nc1N [Flupirtine, flupirtine, reference compound] | –
4 | – | – | – | – | – | – | – | – | – | – | – | – | – | – | – | – | – | O=C1c2ccccc2C(Cc2ccncc2)(Cc2ccncc2)c2ccccc21 [XE-991, reference compound] | able to reverse this increase
